From ChEMBL document CHEMBL3399993, “Design and synthesis of novel quinoline-aminopiperidine hybrid analogues as Mycobacterium tuberculosis DNA gyraseB inhibitors” (Bioorg Med Chem, 2015)
Converted amounts (≈) assume the structure as drawn.

How the values were obtained:
DNA gyrase subunit B = DNA gyrase subunit B (Mycobacterium smegmatis, UniProt P0C559); assay: Inhibition of Mycobacterium smegmatis GyrB ATPase activity expressed in Escherichia coli BL21 (DE3) pLysS cells after 100 mins by inorganic phosphate release detection based malachite green reagent assay; set-up: species or system Mycolicibacterium smegmatis
[1] = biological target: DNA gyrase subunit A/DNA gyrase subunit B (Mycobacterium tuberculosis (strain ATCC 25618 / H37Rv), UniProt P9WG45+P9WG47); assay: Inhibition of Mycobacterium tuberculosis GyrA/GyrB using relaxed pBR322 substrate incubated for 30 mins by ethidium bromide staining and electrophoresis based DNA supercoiling assay
[2] = system: Mycobacterium tuberculosis; assay: Antimycobacterial activity against Mycobacterium tuberculosis H37Rv ATCC 27294 incubated for 7 days by microplate alamar blue assay method; type: functional; settings: H37Rv ATCC 27294, 168 h
[3] = Cytotoxicity against mouse RAW264.7 cells assessed as inhibition of cell growth at 50 uM after 48 hrs by MTT assay; type: cell-based; settings: read-out: GI

Chain of DNA gyrase subunit B (P0C559 whole entry): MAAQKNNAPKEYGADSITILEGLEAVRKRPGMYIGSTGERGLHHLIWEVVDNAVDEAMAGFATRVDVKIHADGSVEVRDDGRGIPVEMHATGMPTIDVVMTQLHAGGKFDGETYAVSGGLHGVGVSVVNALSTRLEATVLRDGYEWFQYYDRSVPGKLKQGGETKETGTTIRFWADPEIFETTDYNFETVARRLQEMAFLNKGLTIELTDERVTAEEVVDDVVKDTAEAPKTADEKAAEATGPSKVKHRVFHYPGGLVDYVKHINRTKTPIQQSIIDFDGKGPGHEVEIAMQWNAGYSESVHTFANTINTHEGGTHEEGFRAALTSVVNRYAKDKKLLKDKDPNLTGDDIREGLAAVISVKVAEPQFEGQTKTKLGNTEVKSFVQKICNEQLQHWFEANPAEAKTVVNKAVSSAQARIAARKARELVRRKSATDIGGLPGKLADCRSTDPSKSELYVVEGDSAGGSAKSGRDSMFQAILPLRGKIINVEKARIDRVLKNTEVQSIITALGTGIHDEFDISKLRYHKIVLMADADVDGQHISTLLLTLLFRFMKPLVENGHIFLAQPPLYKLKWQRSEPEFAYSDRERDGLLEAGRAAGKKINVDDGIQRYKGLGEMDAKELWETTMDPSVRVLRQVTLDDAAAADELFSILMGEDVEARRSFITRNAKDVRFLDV
Chain of DNA gyrase subunit A/DNA gyrase subunit B (P9WG45 whole entry): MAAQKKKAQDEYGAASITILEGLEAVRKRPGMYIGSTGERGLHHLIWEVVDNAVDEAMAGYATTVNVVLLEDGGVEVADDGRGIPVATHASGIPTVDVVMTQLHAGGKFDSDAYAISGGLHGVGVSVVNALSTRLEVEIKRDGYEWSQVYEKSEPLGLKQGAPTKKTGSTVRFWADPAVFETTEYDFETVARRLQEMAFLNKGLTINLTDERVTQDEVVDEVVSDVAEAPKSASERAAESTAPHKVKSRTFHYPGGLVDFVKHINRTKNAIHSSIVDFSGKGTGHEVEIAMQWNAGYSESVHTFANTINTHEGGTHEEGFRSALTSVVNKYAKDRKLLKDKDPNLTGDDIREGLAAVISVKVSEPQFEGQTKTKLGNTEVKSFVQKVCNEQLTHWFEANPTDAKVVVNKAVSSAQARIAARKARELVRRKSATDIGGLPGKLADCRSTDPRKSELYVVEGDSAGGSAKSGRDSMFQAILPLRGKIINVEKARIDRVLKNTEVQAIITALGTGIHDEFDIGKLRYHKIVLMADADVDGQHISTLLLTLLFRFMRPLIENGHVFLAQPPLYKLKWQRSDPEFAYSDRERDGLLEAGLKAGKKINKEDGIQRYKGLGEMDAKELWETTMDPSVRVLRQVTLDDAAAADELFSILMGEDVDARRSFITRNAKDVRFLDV
Chain of DNA gyrase subunit A/DNA gyrase subunit B (P9WG47 whole entry): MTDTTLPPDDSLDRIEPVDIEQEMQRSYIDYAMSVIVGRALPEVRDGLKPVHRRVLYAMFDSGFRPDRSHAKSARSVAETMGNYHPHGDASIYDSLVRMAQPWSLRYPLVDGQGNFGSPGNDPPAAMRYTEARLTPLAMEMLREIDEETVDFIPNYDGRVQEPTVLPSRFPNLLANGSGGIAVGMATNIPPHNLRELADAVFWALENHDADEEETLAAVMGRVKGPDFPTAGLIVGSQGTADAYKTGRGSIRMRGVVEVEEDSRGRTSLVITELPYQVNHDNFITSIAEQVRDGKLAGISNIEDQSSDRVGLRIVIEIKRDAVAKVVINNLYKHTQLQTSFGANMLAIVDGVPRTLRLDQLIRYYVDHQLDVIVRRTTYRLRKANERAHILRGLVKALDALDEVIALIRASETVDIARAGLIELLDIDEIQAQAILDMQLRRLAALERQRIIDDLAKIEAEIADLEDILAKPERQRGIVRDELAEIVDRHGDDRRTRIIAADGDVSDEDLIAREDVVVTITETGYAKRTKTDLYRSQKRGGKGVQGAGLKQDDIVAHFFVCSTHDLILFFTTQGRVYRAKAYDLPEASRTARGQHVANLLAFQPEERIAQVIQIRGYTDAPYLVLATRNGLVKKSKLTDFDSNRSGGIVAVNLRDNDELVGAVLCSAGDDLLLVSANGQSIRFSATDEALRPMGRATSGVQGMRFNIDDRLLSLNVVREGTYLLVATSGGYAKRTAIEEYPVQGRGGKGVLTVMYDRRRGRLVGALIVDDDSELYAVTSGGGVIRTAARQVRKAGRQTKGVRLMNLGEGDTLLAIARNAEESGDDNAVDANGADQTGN

Cc1cc(N2CCC(NC(=S)Nc3ccccc3)CC2)c2cc(C(F)(F)F)ccc2n1
IC50 (DNA gyrase subunit B): 39 µM | IC50 [1]: 29.4 µM | MIC [2]: 35.8 µM (≈ 15.9 µg/mL) | inhibition at 48 h, 50 µM [3]: 23.3%

Cc1cc(N2CCC(NC(=O)Nc3ccc(Cl)cc3)CC2)c2cc(C(F)(F)F)ccc2n1
IC50 (DNA gyrase subunit B): 34 µM | IC50 [1]: 17.3 µM | MIC [2]: 48.5 µM (≈ 22.5 µg/mL) | inhibition at 48 h, 50 µM [3]: 29.1%

COc1ccc(NC(=O)NC2CCN(c3cc(C)nc4ccc(F)cc34)CC2)cc1
IC50 (DNA gyrase subunit B): 10.1 µM | IC50 [1]: 7.62 µM | MIC [2]: 7.65 µM (≈ 3.12 µg/mL) | inhibition at 48 h, 50 µM [3]: 49.7%

Cc1ccc(NC(=O)NC2CCN(c3cc(C)nc4ccccc34)CC2)cc1
IC50 (DNA gyrase subunit B): 20.5 µM | IC50 [1]: 14.8 µM | MIC [2]: 24.1 µM (≈ 9.04 µg/mL) | inhibition at 48 h, 50 µM [3]: 51.4%

COc1c(N2C[C@@H]3CCCN[C@@H]3C2)c(F)cc2c(=O)c(C(=O)O)cn(C3CC3)c12 [MOXIFLOXACIN]
IC50 (DNA gyrase subunit B): > 50 µM | MIC [2]: 1.26 µM (≈ 0.506 µg/mL)

COc1ccc(NC(=S)NC2CCN(c3cc(C)nc4ccc(C(F)(F)F)cc34)CC2)cc1
IC50 (DNA gyrase subunit B): 32.6 µM | IC50 [1]: 34.5 µM | MIC [2]: 66.9 µM (≈ 31.7 µg/mL) | inhibition at 48 h, 50 µM [3]: 41.8%

COc1ccc(NC(=O)NC2CCN(c3cc(C)nc4ccc(C(F)(F)F)cc34)CC2)cc1
IC50 (DNA gyrase subunit B): 41.2 µM | IC50 [1]: 19.8 µM | MIC [2]: 54.3 µM (≈ 24.9 µg/mL) | inhibition at 48 h, 50 µM [3]: 29%

Cc1cc(N2CCC(NC(=O)Nc3ccc(F)cc3)CC2)c2ccccc2n1
IC50 (DNA gyrase subunit B): 34.9 µM | IC50 [1]: 19.7 µM | MIC [2]: 34.1 µM (≈ 12.9 µg/mL) | inhibition at 48 h, 50 µM [3]: 49.4%

COc1ccc(NC(=S)NC2CCN(c3cc(C)nc4ccc(F)cc34)CC2)cc1
IC50 (DNA gyrase subunit B): 39.5 µM | IC50 [1]: 17.8 µM | MIC [2]: 31.7 µM (≈ 13.4 µg/mL) | inhibition at 48 h, 50 µM [3]: 21.3%

Cc1cc(N2CCC(NC(=O)Nc3ccccc3)CC2)c2cc(C(F)(F)F)ccc2n1
IC50 (DNA gyrase subunit B): 14.9 µM | IC50 [1]: 8.3 µM | MIC [2]: 29.4 µM (≈ 12.6 µg/mL) | inhibition at 48 h, 50 µM [3]: 20.1%

Cc1ccc(NC(=S)NC2CCN(c3cc(C)nc4ccccc34)CC2)cc1
IC50 (DNA gyrase subunit B): 7.26 µM | IC50 [1]: 2.66 µM | MIC [2]: 15.7 µM (≈ 6.12 µg/mL) | inhibition at 48 h, 50 µM [3]: 21.6%

Cc1cc(N2CCC(NC(=S)Nc3ccc(Cl)cc3)CC2)c2cc(C(F)(F)F)ccc2n1
IC50 (DNA gyrase subunit B): 16.5 µM | IC50 [1]: 4.12 µM | MIC [2]: 30.7 µM (≈ 14.7 µg/mL) | inhibition at 48 h, 50 µM [3]: 11.8%

COc1ccc(NC(=O)NC2CCN(c3cc(C)nc4ccc(OC)cc34)CC2)cc1
IC50 (DNA gyrase subunit B): 9.25 µM | IC50 [1]: 5.86 µM | MIC [2]: 12.6 µM (≈ 5.29 µg/mL) | inhibition at 48 h, 50 µM [3]: 19.6%

Cc1cc(N2CCC(NC(=S)Nc3ccc([N+](=O)[O-])cc3)CC2)c2cc(F)ccc2n1
IC50 (DNA gyrase subunit B): 56.1 µM | IC50 [1]: 25.5 µM | MIC [2]: 63.3 µM (≈ 27.8 µg/mL) | inhibition at 48 h, 50 µM [3]: 40.7%

Cc1cc(N2CCC(NC(=S)Nc3ccc(Cl)cc3)CC2)c2ccccc2n1
IC50 (DNA gyrase subunit B): 12.3 µM | IC50 [1]: 8.12 µM | MIC [2]: 15.2 µM (≈ 6.25 µg/mL) | inhibition at 48 h, 50 µM [3]: 20.8%

COc1ccc2nc(C)cc(N3CCC(NC(=O)Nc4ccc(F)cc4)CC3)c2c1
IC50 (DNA gyrase subunit B): 18.5 µM | IC50 [1]: 14.8 µM | MIC [2]: 25.7 µM (≈ 10.5 µg/mL) | inhibition at 48 h, 50 µM [3]: 17.3%

Cc1cc(N2CCC(NC(=S)Nc3ccc([N+](=O)[O-])cc3)CC2)c2ccccc2n1
IC50 (DNA gyrase subunit B): 3.77 µM | IC50 [1]: 1.21 µM | MIC [2]: 7.65 µM (≈ 3.22 µg/mL) | inhibition at 48 h, 50 µM [3]: 31.8%

Cc1cc(N2CCC(NC(=O)Nc3ccc(Cl)cc3)CC2)c2cc(F)ccc2n1
IC50 (DNA gyrase subunit B): 49 µM | IC50 [1]: 29.6 µM | MIC [2]: 50.8 µM (≈ 21 µg/mL) | inhibition at 48 h, 50 µM [3]: 49.7%

Cc1cc(N2CCC(NC(=S)Nc3ccccc3)CC2)c2ccccc2n1
IC50 (DNA gyrase subunit B): 12.7 µM | IC50 [1]: 9.4 µM | MIC [2]: 16.6 µM (≈ 6.25 µg/mL) | inhibition at 48 h, 50 µM [3]: 11.8%

Cc1cc(N2CCC(NC(=O)Nc3ccc(F)cc3)CC2)c2cc(F)ccc2n1
IC50 (DNA gyrase subunit B): 1.78 µM | IC50 [1]: 0.78 µM | MIC [2]: 3.82 µM (≈ 1.51 µg/mL) | inhibition at 48 h, 50 µM [3]: 25.4%

Cc1cc(N2CCC(NC(=S)Nc3ccccc3)CC2)c2cc(F)ccc2n1
IC50 (DNA gyrase subunit B): 68.2 µM | IC50 [1]: 39.4 µM | MIC [2]: 63.3 µM (≈ 25 µg/mL) | inhibition at 48 h, 50 µM [3]: 37.4%

COc1ccc2nc(C)cc(N3CCC(NC(=S)Nc4ccc([N+](=O)[O-])cc4)CC3)c2c1
IC50 (DNA gyrase subunit B): 2.5 µM | IC50 [1]: 0.88 µM | MIC [2]: 1.72 µM (≈ 0.777 µg/mL) | inhibition at 48 h, 50 µM [3]: 24.9%

Cc1cc(N2CCC(NC(=O)Nc3ccc([N+](=O)[O-])cc3)CC2)c2ccccc2n1
IC50 (DNA gyrase subunit B): 17 µM | IC50 [1]: 10.6 µM | MIC [2]: 15.4 µM (≈ 6.25 µg/mL) | inhibition at 48 h, 50 µM [3]: 30.4%

COc1ccc(NC(=S)NC2CCN(c3cc(C)nc4ccccc34)CC2)cc1
IC50 (DNA gyrase subunit B): 19.4 µM | IC50 [1]: 13.5 µM | MIC [2]: 30.2 µM (≈ 12.3 µg/mL) | inhibition at 48 h, 50 µM [3]: 21.9%

Cc1cc(N2CCC(NC(=S)Nc3ccc(F)cc3)CC2)c2cc(F)ccc2n1
IC50 (DNA gyrase subunit B): 45.9 µM | IC50 [1]: 23.5 µM | MIC [2]: 63.3 µM (≈ 26.1 µg/mL) | inhibition at 48 h, 50 µM [3]: 33.9%

Cc1ccc(NC(=O)NC2CCN(c3cc(C)nc4ccc(C(F)(F)F)cc34)CC2)cc1
IC50 (DNA gyrase subunit B): 16.6 µM | IC50 [1]: 9.2 µM | MIC [2]: 28.1 µM (≈ 12.4 µg/mL) | inhibition at 48 h, 50 µM [3]: 16.2%

Cc1cc(N2CCC(NC(=S)Nc3ccc(F)cc3)CC2)c2cc(C(F)(F)F)ccc2n1
IC50 (DNA gyrase subunit B): 48.5 µM | IC50 [1]: 22.8 µM | MIC [2]: 66.5 µM (≈ 30.8 µg/mL) | inhibition at 48 h, 50 µM [3]: 50.7%

Cc1cc(N2CCC(NC(=O)Nc3ccccc3)CC2)c2ccccc2n1
IC50 (DNA gyrase subunit B): 17.3 µM | IC50 [1]: 9.79 µM | MIC [2]: 25.8 µM (≈ 9.31 µg/mL) | inhibition at 48 h, 50 µM [3]: 33.9%

Cc1cc(N2CCC(NC(=O)Nc3ccc(Cl)cc3)CC2)c2ccccc2n1
IC50 (DNA gyrase subunit B): 12.9 µM | IC50 [1]: 8.2 µM | MIC [2]: 7.91 µM (≈ 3.12 µg/mL) | inhibition at 48 h, 50 µM [3]: 40.1%

CO[C@@H]1[C@@H](OC(N)=O)[C@@H](O)[C@H](Oc2ccc3c(O)c(NC(=O)c4ccc(O)c(CC=C(C)C)c4)c(=O)oc3c2C)OC1(C)C [NOVOBIOCIN]
MIC [2]: > 200 µM

Cc1ccc(NC(=S)NC2CCN(c3cc(C)nc4ccc(C(F)(F)F)cc34)CC2)cc1
IC50 (DNA gyrase subunit B): 24.7 µM | IC50 [1]: 5.1 µM | MIC [2]: 31.7 µM (≈ 14.5 µg/mL) | inhibition at 48 h, 50 µM [3]: 19.3%

COc1ccc2nc(C)cc(N3CCC(NC(=O)Nc4ccccc4)CC3)c2c1
IC50 (DNA gyrase subunit B): 12.2 µM | IC50 [1]: 9.32 µM | MIC [2]: 32 µM (≈ 12.5 µg/mL) | inhibition at 48 h, 50 µM [3]: 66.5%

CO[C@H]1/C=C/O[C@@]2(C)Oc3c(C)c(O)c4c(O)c(c(/C=N/N5CCN(C)CC5)c(O)c4c3C2=O)NC(=O)/C(C)=C\C=C\[C@H](C)[C@H](O)[C@@H](C)[C@@H](O)[C@@H](C)[C@H](OC(C)=O)[C@@H]1C [RIFAMPIN]
MIC [2]: 0.23 µM (≈ 0.189 µg/mL)

Cc1cc(N2CCC(NC(=O)Nc3ccccc3)CC2)c2cc(F)ccc2n1
IC50 (DNA gyrase subunit B): 20.5 µM | IC50 [1]: 9.84 µM | MIC [2]: 33 µM (≈ 12.5 µg/mL) | inhibition at 48 h, 50 µM [3]: 48.9%

Cc1cc(N2CCC(NC(=O)Nc3ccc(F)cc3)CC2)c2cc(C(F)(F)F)ccc2n1
IC50 (DNA gyrase subunit B): 19.8 µM | IC50 [1]: 11.8 µM | MIC [2]: 24.9 µM (≈ 11.1 µg/mL) | inhibition at 48 h, 50 µM [3]: 39.8%

NNC(=O)c1ccncc1 [ISONIAZID]
MIC [2]: 0.66 µM (≈ 0.0905 µg/mL)

Cc1cc(N2CCC(NC(=O)Nc3ccc([N+](=O)[O-])cc3)CC2)c2cc(C(F)(F)F)ccc2n1
IC50 (DNA gyrase subunit B): 47.6 µM | IC50 [1]: 22.3 µM | MIC [2]: 52.2 µM (≈ 24.7 µg/mL) | inhibition at 48 h, 50 µM [3]: 48.2%

Cc1cc(N2CCC(NC(=S)Nc3ccc(Cl)cc3)CC2)c2cc(F)ccc2n1
IC50 (DNA gyrase subunit B): 41.1 µM | IC50 [1]: 21.5 µM | MIC [2]: 31.7 µM (≈ 13.6 µg/mL) | inhibition at 48 h, 50 µM [3]: 32.3%

COc1ccc2nc(C)cc(N3CCC(NC(=S)Nc4ccc(F)cc4)CC3)c2c1
IC50 (DNA gyrase subunit B): 8.7 µM | IC50 [1]: 2.31 µM | MIC [2]: 14.7 µM (≈ 6.25 µg/mL) | inhibition at 48 h, 50 µM [3]: 29.3%

Cc1cc(N2CCC(NC(=S)Nc3ccc(F)cc3)CC2)c2ccccc2n1
IC50 (DNA gyrase subunit B): 29.8 µM | IC50 [1]: 16.7 µM | MIC [2]: 36.1 µM (≈ 14.3 µg/mL) | inhibition at 48 h, 50 µM [3]: 32.9%

Cc1ccc(NC(=S)NC2CCN(c3cc(C)nc4ccc(F)cc34)CC2)cc1
IC50 (DNA gyrase subunit B): 59.3 µM | IC50 [1]: 25.4 µM | MIC [2]: 67.9 µM (≈ 27.8 µg/mL) | inhibition at 48 h, 50 µM [3]: 23.9%

COc1ccc(NC(=O)NC2CCN(c3cc(C)nc4ccccc34)CC2)cc1
IC50 (DNA gyrase subunit B): 22 µM | IC50 [1]: 18.5 µM | MIC [2]: 32 µM (≈ 12.5 µg/mL) | inhibition at 48 h, 50 µM [3]: 49.5%
